The text below walks through data of PubChem BioAssay AID504822 (The Scripps Research Institute Molecular Screening Center, 2011).

Each structure is given as a SMILES string. pEC50: −log10 of the molar value. The source made the active and inactive calls.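 How the source made its calls: active means EC50 for procaspase-7 activation at or below 10 µM; inactive means EC50 above 10 µM.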

The target in this experiment is Caspase-7 (Homo sapiens) (UniProt P55210). Put plainly: procaspase-7 activation potency, dual candidates – biochemical, absorbance, PC-7 D3A triple mutant, powder samples, late-stage follow-up (AID 504822). The settings on record: recombinant procaspase-7 D3A, Ac-DEVD-pNA absorbance.
Sequence of Caspase-7 (Homo sapiens) (P55210 whole entry D23A/D198A/D206A): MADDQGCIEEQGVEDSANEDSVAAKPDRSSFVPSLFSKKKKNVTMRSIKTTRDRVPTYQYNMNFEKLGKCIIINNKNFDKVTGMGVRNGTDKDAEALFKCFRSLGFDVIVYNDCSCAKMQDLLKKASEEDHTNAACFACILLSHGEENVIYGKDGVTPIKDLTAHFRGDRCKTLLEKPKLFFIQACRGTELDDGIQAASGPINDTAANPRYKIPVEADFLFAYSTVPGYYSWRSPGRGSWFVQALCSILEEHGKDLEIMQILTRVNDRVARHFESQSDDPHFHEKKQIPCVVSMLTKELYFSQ
Turning to `COc1ccccc1N1C(=O)C2C(C(=O)c3ccccc3)=NN(c3ccccc3)C2C1=O` (stereo not given), the EC50 was > 85.3 µM (inactive).
`Cc1[nH]nc2c1C(c1c[nH]c3ccccc13)C(C#N)=C(N)O2` (stereo not given): the pEC50 is 5.35.
Take `O=C(Nc1ccc(Cc2ccncc2)cc1)C1CCC(N2C(=O)C3C4C=CC(C5CC45)C3C2=O)CC1` (stereo not given): the EC50 is > 85.3 µM (inactive).
On to `O=C(C1=NN(c2ccccc2)C2C(=O)N(c3ccccc3)C(=O)C12)c1ccccc1` (stereo not given), for which the EC50 was > 85.3 µM (inactive).
For the molecule `COC(=O)C1=NN(c2ccc(Cl)cc2)C2C(=O)N(c3ccccc3OC)C(=O)C12` (stereo not given), the EC50 is > 85.3 µM (inactive).
